Experimental data published in publication PMC5584945, “Evaluation of robenidine analog NCL195 as a novel broad-spectrum antibacterial agent” (PLoS ONE, 2017).
≈ marks a conversion by molar mass, not a printed value. Read-outs that look alike come from different tables or passages of the source.

How the values were obtained:
S. aureus = experiment: MIC, broth micro-dilution (CLSI); type: cell-based, Staphylococcus aureus; conditions: for MIC90 / MIC / MIC50: Staphylococcus aureus
S. pneumoniae D39 = experiment: Time-dependent killing assay; type: cell-based, Streptococcus pneumoniae
Experimental: Time kill assays were performed (in duplicate) essentially as described previously with slight modifications. Briefly, a few colonies of luminescent S. pneumoniae strain D39LUX or luminescent S. aureus ATCC 12600 (Xen29) from an overnight HBA were emulsified in normal saline and adjusted to A600 nm = 0.10 (equivalent to approx. 5 × 10^7 c.f.u. per ml) and the bacterial suspension further diluted 1:20 in saline. […] The compounds were serially diluted in 100% DMSO at 100× the final desired concentration and 100 μl of appropriate concentrations added to each 10 ml preparation. Duplicate cultures were incubated at 37°C (+ 5% CO2 for S. pneumoniae D39), with samples withdrawn at 0, 0.5, 1, 2, 4, 6, 8 and 24 h, serially diluted 10-fold and plated on HBA overnight at 37°C (+ 5% CO2 for S. pneumoniae D39) for bacterial enumeration.

[1] = Pharmacokinetics after IV administration; type: in vivo, mouse; conditions: mouse, plasma, male Swiss outbred mice
Experimental: Mice had access to food and water ad libitum throughout the pre- and post-dose sampling period. The Animal Ethics Committee of the Monash Institute of Pharmaceutical Sciences reviewed and approved all animal PK experiments (approval number MIPS.2013.33). The PK studies were conducted in compliance with the Australian Code of Practice for the Care and Use of Animals for Scientific Purposes (7th Edition 2004). […] For both the IV and IP administration, a maximum of two samples were obtained from each mouse, with samples being taken either via submandibular bleed (approximately 120 μl; conscious sampling) or terminal cardiac puncture (0.6 ml; under inhaled Isoflurane anesthesia). No urine samples were collected as mice were housed in bedded cages during the study. […] Mice were humanely sacrificed by cervical dislocation while under anaesthesia (using gaseous isoflurane) at the end of experiments. Blood was collected directly into polypropylene Eppendorf tubes containing heparin as anti-coagulant, and stabilization cocktail (containing Complete (a protease inhibitor cocktail with EDTA) and potassium fluoride) to minimize the potential for ex vivo degradation of the test compounds in blood/plasma samples. Once collected, blood samples were centrifuged immediately, supernatant plasma was removed, and stored at either -80°C (for the IV exposure) or at -20°C (for the IP exposure) until analysis by liquid chromatography-mass spectrometry (LC-MS). Following protein precipitation with acetonitrile, thawed plasma samples were analyzed by LC-MS (Waters Micromass Quattro Premier coupled to a Waters Acquity UPLC) using positive electrospray ionization operating in MRM mode.

S. aureus Xen29 = experiment: Point of resistance assay (serial passage)
[2] = ATCC 29213 / MSSA, ATCC29213 MSSA (ST5), absence of FBS, read-out: MIC
[3] = IRISH 1 – HA-EMRSA (ST8), absence of FBS, read-out: MIC
[4] = IRISH 2 – HA-EMRSA (ST8), absence of FBS, read-out: MIC
[5] = MRSA / USA300, USA 300 - MRSA (ST8), absence of FBS, read-out: MIC
[6] = MRSA, AUS2-MRSA (ST239), absence of FBS, read-out: MIC
[7] = MRSA, AUS3-MRSA (ST239), absence of FBS, read-out: MIC
[8] = MRSA, Classic–HA-MRSA (ST250), absence of FBS, read-out: MIC
[9] = MRSA, NY JAPAN – HA MRSA (ST5), absence of FBS, read-out: MIC
[10] = MRSA, ST398–CA-MRSA-V (ST398), absence of FBS, read-out: MIC
[11] = S2 Table isolates, absence of FBS
[12] = TAIWAN PVL+ – CA-cMRSA (ST59), absence of FBS, read-out: MIC
[13] = UK 15 PVL+ – HA-EMRSA (ST22), absence of FBS, read-out: MIC
[14] = UK 15 – HA-EMRSA (ST22), absence of FBS, read-out: MIC
[15] = UK 16 – HA- EMRSA (ST36), absence of FBS, read-out: MIC
[16] = UK 17 – HA-EMRSA (ST247), absence of FBS, read-out: MIC

## CC1(C)S[C@@H]2[C@H](NC(=O)[C@H](N)c3ccccc3)C(=O)N2[C@H]1C(=O)O [Ampicillin]
S. aureus; 23 isolates
  MIC90: > 16 µg/mL
S. aureus; [2]
  MIC: 2 µg/mL (≈ 5.72 µM)
S. aureus; [3]
  MIC: > 16 µg/mL
S. aureus; [4]
  MIC: > 16 µg/mL
S. aureus; [5]
  MIC: > 16 µg/mL
S. aureus; [6]
  MIC: > 16 µg/mL
S. aureus; [7]
  MIC: > 16 µg/mL
S. aureus; MRSA, BENGAL BAY PVL+ – CA-MRSA (ST772), absence of FBS, read-out: MIC
  MIC: 8 µg/mL (≈ 22.9 µM)
S. aureus; [8]
  MIC: > 16 µg/mL
S. aureus; [9]
  MIC: > 16 µg/mL
S. aureus; MRSA, QLD PVL+ –CA-MRSA (ST93), absence of FBS, read-out: MIC
  MIC: > 16 µg/mL
S. aureus; [10]
  MIC: > 16 µg/mL
S. aureus; MRSA, WSPP – PVL neg CA MRSA (ST30), absence of FBS, read-out: MIC
  MIC: > 16 µg/mL
S. aureus; [11]
  MIC50: > 16 µg/mL
  MIC90: > 16 µg/mL
S. aureus; [12]
  MIC: 8 µg/mL (≈ 22.9 µM)
S. aureus; [13]
  MIC: 16 µg/mL (≈ 45.8 µM)
S. aureus; [14]
  MIC: > 16 µg/mL
S. aureus; [15]
  MIC: > 16 µg/mL
S. aureus; [16]
  MIC: > 16 µg/mL
S. pneumoniae D39; 4× MIC
  Time to reduce the population below the limit of detection: 8 h

## Cc1ccc(/C=N/Nc2cc(N/N=C/c3ccc(C)cc3)nc(N)n2)cc1 [NCL195, 4,6-bis(2-((E)-4-methylbenzylidene)hydrazinyl)pyrimidin-2-amine]
S. aureus; 10% FBS versus no FBS
  Fold increase of MIC range in the presence of 10% FBS: 4 fold
S. aureus; 23 isolates
  MIC range: 1 to 2 µg/mL
S. aureus; S2 Table isolates, 10% FBS
  MIC range: 4 to 8 µg/mL
  MIC50: 8 µg/mL (≈ 22.3 µM)
  MIC90: 8 µg/mL (≈ 22.3 µM)
S. aureus; [11]
  MIC range: 1 to 2 µg/mL
  MIC50: 2 µg/mL (≈ 5.56 µM)
  MIC90: 2 µg/mL (≈ 5.56 µM)
S. aureus; S. aureus 49775, human, horse or mouse serum
  Fold increase in MIC in the presence of serum: 4 fold
S. aureus; ATCC 12600 / MSSA, ATCC12600 [Xen29] (MSSA), 10% FBS
  MIC: 4 µg/mL (≈ 11.1 µM)
S. aureus; ATCC 12600 / MSSA, ATCC12600 [Xen29] (MSSA), absence of FBS
  MIC: 1 µg/mL (≈ 2.78 µM)
S. aureus; ATCC 29213 / MSSA, ATCC29213 MSSA (ST5), 10% FBS, read-out: MIC
  MIC: 8 µg/mL (≈ 22.3 µM)
S. aureus; [2]
  MIC: 2 µg/mL (≈ 5.56 µM)
S. aureus; ATCC 49775 / MSSA, ATCC 49775 (MSSA), 10% FBS, read-out: MIC
  MIC: 8 µg/mL (≈ 22.3 µM)
S. aureus; ATCC 49775 / MSSA, ATCC 49775 (MSSA), absence of FBS, read-out: MIC
  MIC: 2 µg/mL (≈ 5.56 µM)
S. aureus; IRISH 1 – HA-EMRSA (ST8), 10% FBS, read-out: MIC
  MIC: 8 µg/mL (≈ 22.3 µM)
S. aureus; [3]
  MIC: 2 µg/mL (≈ 5.56 µM)
S. aureus; IRISH 2 – HA-EMRSA (ST8), 10% FBS, read-out: MIC
  MIC: 4 µg/mL (≈ 11.1 µM)
S. aureus; [4]
  MIC: 1 µg/mL (≈ 2.78 µM)
S. aureus; MRSA / USA300, USA 300 - MRSA (ST8), 10% FBS, read-out: MIC
  MIC: 8 µg/mL (≈ 22.3 µM)
S. aureus; [5]
  MIC: 2 µg/mL (≈ 5.56 µM)
S. aureus; MRSA, AUS2-MRSA (ST239), 10% FBS, read-out: MIC
  MIC: 8 µg/mL (≈ 22.3 µM)
S. aureus; [6]
  MIC: 2 µg/mL (≈ 5.56 µM)
S. aureus; MRSA, AUS3-MRSA (ST239), 10% FBS, read-out: MIC
  MIC: 4 µg/mL (≈ 11.1 µM)
S. aureus; [7]
  MIC: 1 µg/mL (≈ 2.78 µM)
S. aureus; MRSA, Classic–HA-MRSA (ST250), 10% FBS, read-out: MIC
  MIC: 8 µg/mL (≈ 22.3 µM)
S. aureus; [8]
  MIC: 2 µg/mL (≈ 5.56 µM)
S. aureus; MRSA, NY JAPAN – HA MRSA (ST5), 10% FBS, read-out: MIC
  MIC: 4 µg/mL (≈ 11.1 µM)
S. aureus; [9]
  MIC: 1 µg/mL (≈ 2.78 µM)
S. aureus; MRSA, ST398–CA-MRSA-V (ST398), 10% FBS, read-out: MIC
  MIC: 8 µg/mL (≈ 22.3 µM)
S. aureus; [10]
  MIC: 2 µg/mL (≈ 5.56 µM)
S. aureus; MRSA, WA2–CA-MRSA (ST78), 10% FBS, read-out: MIC
  MIC: 4 µg/mL (≈ 11.1 µM)
S. aureus; MRSA, WA2–CA-MRSA (ST78), absence of FBS, read-out: MIC
  MIC: 1 µg/mL (≈ 2.78 µM)
S. aureus; MRSA, WA3–CA-MRSA (ST5), 10% FBS, read-out: MIC
  MIC: 4 µg/mL (≈ 11.1 µM)
S. aureus; MRSA, WA3–CA-MRSA (ST5), absence of FBS, read-out: MIC
  MIC: 1 µg/mL (≈ 2.78 µM)
S. aureus; MRSA, WA84–CA-MRSA (ST45), 10% FBS, read-out: MIC
  MIC: 4 µg/mL (≈ 11.1 µM)
S. aureus; MRSA, WA84–CA-MRSA (ST45), absence of FBS, read-out: MIC
  MIC: 1 µg/mL (≈ 2.78 µM)
S. aureus; TAIWAN PVL+ – CA-cMRSA (ST59), 10% FBS, read-out: MIC
  MIC: 4 µg/mL (≈ 11.1 µM)
S. aureus; [12]
  MIC: 1 µg/mL (≈ 2.78 µM)
S. aureus; UK 15 PVL+ – HA-EMRSA (ST22), 10% FBS, read-out: MIC
  MIC: 8 µg/mL (≈ 22.3 µM)
S. aureus; [13]
  MIC: 2 µg/mL (≈ 5.56 µM)
S. aureus; UK 15 – HA-EMRSA (ST22), 10% FBS, read-out: MIC
  MIC: 8 µg/mL (≈ 22.3 µM)
S. aureus; [14]
  MIC: 2 µg/mL (≈ 5.56 µM)
S. aureus; UK 16 – HA- EMRSA (ST36), 10% FBS, read-out: MIC
  MIC: 4 µg/mL (≈ 11.1 µM)
S. aureus; [15]
  MIC: 1 µg/mL (≈ 2.78 µM)
S. aureus; UK 17 – HA-EMRSA (ST247), 10% FBS, read-out: MIC
  MIC: 8 µg/mL (≈ 22.3 µM)
S. aureus; [16]
  MIC: 2 µg/mL (≈ 5.56 µM)
S. pneumoniae D39; 2× MIC
  Time to reduce the population below the limit of detection: 6 h
S. pneumoniae D39; 4× MIC
  Time to reduce the population below the limit of detection: 4 h
[1]; male, Swiss (outbred), iv, 5 mg/kg, read-out: AUC0-inf
  AUC(0-inf): 12.5 µM·h
[1]; male, Swiss (outbred), iv, 5 mg/kg, read-out: Plasma CL
  clearance: 16.3 mL/min/kg
[1]; IV 5 mg/kg, read-out: Apparent t½ (converted)
  half-life: 2.4 h
[1]; IV 5 mg/kg, read-out: Plasma VSS
  Vd: 2.6 L/kg
S. aureus Xen29; 10^5 c.f.u. Xen29 in broth with 1×, 2× and 4× MIC
  MIC of colonies that grew after 72 h in the presence of NCL195: 1 × MIC
S. aureus Xen29; 24 daily sequential cultures
  Resistance (fold MIC) over serial passage: ≤ 1 × MIC
